For data set [1], the target named is T1, calf intestinal alkaline phosphatase (Bos taurus, UniProt P19111). Description: Alkaline phosphatase inhibition assay (spectrophotometric, p-NPP substrate). The format is biochemical. The settings on record: Mean ± SEM, pH 9.5, 37 °C. As for the experimental part:
The inhibitory activity of calf intestinal alkaline phosphatase was evaluated using spectrophotometric assay as previously reported in our studies[55]^,[56]. In addition, Kinetic mechanism analysis was conducted to determine the mechanism of inhibition. […] The detailed procedure for alkaline phosphate inhibition assay and kinetic mechanism analysis is given in supplementary file. […]
Alkaline phosphatase inhibition assay and kinetic mechanism analysis
The reaction mixture comprised of 50 mM Tris -HCl buffer (5 mM MgCl2, 0.1 mM ZnCl2 pH 9.5), the compound (0.1 mM with final DMSO 1% (v/v) and mixture was pre -incubated for 10 min by adding 5 µL of CIALP (0.025 U/mL). Then, 10 µL of substrate (0.5 mM p-NPP (para nitrophenyl phosphate disodium salt) was added to initiate the reaction and the assay mixture was incubated again for 30 min at 37 °C. The change in absorbance of released p-nitrophenolate was monitored at 405 nm, using a 96-well microplate reader (SpectraMax ABS, USA). All the experiments were repeated three times in a triplicate manner.
The Alkaline Phosphatase activities were calculated according to the following formula: […]

Data set [2] deals with T1, calf intestinal alkaline phosphatase. The data set is described as follows: Kinetic mechanism analysis (Lineweaver-Burk plot). The format is biochemical. The settings on record: for Km / Vmax: substrate para nitrophenyl phosphate disodium salt. As for the experimental part: The inhibitory activity of calf intestinal alkaline phosphatase was evaluated using spectrophotometric assay as previously reported in our studies[55]^,[56]. In addition, Kinetic mechanism analysis was conducted to determine the mechanism of inhibition. […] The detailed procedure for alkaline phosphate inhibition assay and kinetic mechanism analysis is given in supplementary file.
According to the EI and ESI constants, respectively, it was determined if the compounds had the ability to inhibit the free enzyme and the enzyme-substrate complex. Figure 4 illustrates a succession of straight lines obtained from the Lineweaver–Burk plot of the enzyme’s kinetic studies against the substrate para nitrophenyl phosphate disodium salt at various inhibitor doses (A).
Where ODcontrol and ODsample represents the optical v densities in the absence and presence of […]
The inhibitor 6g concentrations were used 0.00, 0.169, 0.337 and 0.674 µM, Substrate p-NPP concentrations were 10, 5, 2.5, 1.25, 0.625 and 0.3125 mM. Pre-incubation time and other conditions were same as described in alkaline phosphatase inhibition assay section. Maximal initial velocities were determined from initial linear portion of absorbances up to 10 minutes after addition of enzyme at per minute’s interval. The inhibition type on the enzyme was assayed by Lineweaver-Burk plot of inverse of velocities (1/V) versus inverse of substrate concentration 1/[S] mM-1. The EI dissociation constant Ki was determined by secondary plot of 1/V versus inhibitor […]
Information Classification: General

“Also recorded” adds a separate entry of the source.

T1 sequence (P19111 20-533): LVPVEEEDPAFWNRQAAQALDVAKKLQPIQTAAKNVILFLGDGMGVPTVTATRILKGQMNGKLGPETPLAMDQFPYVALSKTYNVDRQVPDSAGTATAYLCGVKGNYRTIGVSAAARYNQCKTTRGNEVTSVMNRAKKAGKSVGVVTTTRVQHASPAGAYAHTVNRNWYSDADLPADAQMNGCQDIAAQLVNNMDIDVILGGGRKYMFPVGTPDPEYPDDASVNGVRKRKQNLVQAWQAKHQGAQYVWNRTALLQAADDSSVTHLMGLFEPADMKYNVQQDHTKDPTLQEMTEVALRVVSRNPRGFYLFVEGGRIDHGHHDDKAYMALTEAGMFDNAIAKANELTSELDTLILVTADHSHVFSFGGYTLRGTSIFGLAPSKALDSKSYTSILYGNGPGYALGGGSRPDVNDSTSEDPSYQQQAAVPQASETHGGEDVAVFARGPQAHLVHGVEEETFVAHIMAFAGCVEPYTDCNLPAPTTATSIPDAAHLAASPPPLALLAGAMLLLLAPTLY

What is called IC50 is the concentration that gives 50% inhibition. `CCCCCCCCCC(=O)/N=c1/scc(-c2ccc(Br)cc2)n1-c1cnc2ccccc2c1` [Compound 6f] displayed an IC50 in data set [1] of 8680 ± 908 nM.

As usually defined, the melting point is the temperature of the solid-liquid transition. In turn, `CCCCCC(=O)/N=c1/scc(-c2ccc(Br)cc2)n1-c1cnc2ccccc2c1` [Compound 6c, (E)-N-(4-(4-Bromophenyl)-3-(quinolin-3-yl)thiazol-2(3H)-ylidene)hexanamide] yielded a melting point of 181 to 182 °C. In data set [1], this compound registered a half-maximal inhibitory concentration (IC50) of 4240 ± 241 nM.

Take `CCCCCCCC(=O)N=c1scc(-c2ccc(Br)cc2)n1-c1cnc2ccccc2c1` [Compound 6e]: half-maximal inhibition in data set [1] (IC50) required 754 ± 55 nM.

`Cc1ccc(C(=O)/N=c2/scc(-c3ccc(Br)cc3)n2-c2cnc3ccccc3c2)cc1` [Compound 6h]: the melting point lay within 103 to 105 °C. This compound displayed an IC50 in data set [1] of 6300 ± 634 nM.

`CCCCC(=O)/N=c1/scc(-c2ccc(Br)cc2)n1-c1cnc2ccccc2c1` [Compound 6b] showed an IC50 in data set [1] of 3150 ± 251 nM.

As for `O=C(/N=c1/scc(-c2ccc(Br)cc2)n1-c1cnc2ccccc2c1)c1cc([N+](=O)[O-])cc([N+](=O)[O-])c1` [Compound 6j, N-nitrobenzamide quinolinyl iminothiazoline], the IC50 in data set [1] came to 509 ± 36 nM. This IC50 lies about 6.2-fold lower than the previous one.

In the case of `CCCC(=O)/N=c1/scc(-c2ccc(Br)cc2)n1-c1cnc2ccccc2c1` [Compound 6a], the IC50 in data set [1] was found to be 7250 ± 435 nM.

Regarding `CCCCCCC(=O)N=c1scc(-c2ccc(Br)cc2)n1-c1cnc2ccccc2c1` [Compound 6d], the melting point lay in the range of 188 to 190 °C. The same compound displayed an IC50 in data set [1] of 886 ± 74 nM.

For the compound `O=C(/N=c1/scc(-c2ccc(Br)cc2)n1-c1cnc2ccccc2c1)c1ccc(Cl)cc1Cl` [Compound 6i, N-dichlorobenzamide quinolinyl iminothiazoline], in data set [1], the midpoint of inhibition, the IC50, lay at 957 ± 71 nM.

By Km is commonly meant the concentration of substrate that gives half-maximal velocity. A word on the Ki: it is the dissociation constant of the complex between target and ligand, obtained from inhibition or displacement. In turn, `O=C(/N=c1/scc(-c2ccc(Br)cc2)n1-c1cnc2ccccc2c1)c1ccccc1` [Compound 6g, (E)-N-(4-(4-bromophenyl)-3-(quinolin-3-yl)thiazol-2(3H)-ylidene)benzamide] displayed a melting point of 217 to 220 °C. In addition, the IC50 in data set [1] stood at 337 ± 15 nM. For the same compound, in data set [2] (6g concentration 0.169 µM), the Km was found to be 310 µM and the Vmax is listed as 0.00204 ΔA /Min. In data set [2] (6g concentration 0.337 µM), the Km worked out at 310 µM and the Vmax is on record as 0.00175 ΔA /Min. Besides, in data set [2] (6g concentration 0.674 µM), the Km was determined as 310 µM and the Vmax is reported as 0.00133 ΔA /Min. In data set [2] (Lineweaver-Burk plot), the Inhibition type entry is “non-competitively; also recorded: Non-Competitive”. The Ki in data set [2] (secondary plot of slope vs inhibitor concentration, read-out: Ki (EI dissociation constant)) amounted to 470 nM.

The values above are taken from paper PMC9848371, “Synthesis, kinetic studies and in-silico investigations of novel quinolinyl-iminothiazolines as alkaline phosphatase inhibitors” (Journal of Enzyme Inhibition and Medicinal Chemistry, 2023).
